This is an account of results in patent publication US10174052B2, “Quinuclidine compounds as α-7 nicotinic acetylcholine receptor ligands” (BRISTOL-MYERS SQUIBB COMPANY, priority 2014, dated 2019).

This assay deals with T1, α7 nicotinic ACh receptor ion channel expressed in mammalian HEK 293 cells (Rattus norvegicus, UniProt Q05941).
T1 construct: expressed in transfected cells
Description: Ca2+-sensitive fluorescence-based assay for α7 nicotinic acetylcholine receptor channel function (FLIPR), agonist activity. Type of assay: cell-based. The procedure: II) A Ca^2+-Sensitive, Fluorescence-Based Assay α-7 for Nicotinic Acetylcholine Receptor Channel Function in Mammalian Cells (“FLIPR”).
Lead compounds are evaluated for agonist activity at the α7 nicotinic ACh receptor ion channel expressed in mammalian HEK 293 cells. Agonist potency and efficacy values are determined from kinetic fluorescence Ca^2+ influx measurements made using a 384 well FLIPR (Fluorescence Image Plate Reader). The utility of fluorescent indicators for measuring changes in intracellular divalent cation concentrations, particularly Ca^2+, for drug discovery endeavors is well documented (Rudiger, R., et al., Nature Reviews, 2003, 4:579-586; Gonzalez J. E., et al., Receptors and Channels, 2002, 8:283-295). In this assay, channel expressing HEK cell lines seeded in 384 well assay plates are loaded with a membrane permeant fluorescent Ca^2+ indicator dye, whose 510 nm green emission signal increases in response to elevation of intracellular Ca^2+ concentration. The basal fluorescence from the cells is monitored in real time, followed by the acute addition of test compounds. If the compound is an agonist at any of the non-selective cation channels, the latter open and allow the movement of extracellular Ca^2+ ions into the cell cytoplasm, where they bind to the Ca^2+ indicator dye, and produce an increase in fluorescence output signal, which is detected by a cooled CCD imaging camera.
Reagents: The acetomethoxy (AM) ester of the Ca^2+ indicator dye Fluo-4 was obtained from InVitrogen, (Carlsbad, Calif.). Acetylcholine and all buffer constituents were purchased from Sigma Chemical Company, St. Louis, Mo. G418 and Minimal Essential Medium were purchased from InVitrogen Life Technologies, Carlsbad, Calif. Fetal bovine serum was purchased from (InVitrogen, Carlsbad, Calif.).
HEK-293 cells were grown in Minimal Essential Medium containing 10% (v/v) fetal bovine serum at 37° C. in a 5% CO2 incubator. HEK-293 cells stably expressing the ion channels were grown in the same medium with the addition of 500 μg/ml G418.
HEK-293 cells expressing the ion channels of interest were plated in 384 well, black-walled, clear-bottomed, poly-D-lysine coated plates at a density of ˜20,000 cells/well in 20 μl of Minimal Essential Medium containing 10% (v/v) fetal bovine serum and incubated for 2 days at 29° C. in a 5% CO2 incubator. Prior to assay, cells were loaded with the Fluo-4 AM ester. Cell loading was accomplished by removing the culture medium and replacing it with 30 μl/well of the AM ester of the dye (5 μM) mixed with Hanks Balanced Salt Solution (#14175-095) containing 20 mM HEPES, 2.5 mM probenecid, 0.5 mM CaCl2, 1 mM MgCl2 and 10 μM atropine. Dye loading was allowed to proceed for 90 minutes at room temperature at which time the dye loading solution was removed and replaced with 40 μl/well of Hanks buffer. Cells loaded with dye were loaded onto a FLIPR384 (Molecular Devices, Sunnyvale, Calif.). Fluo-4 dye was excited using the 488 nm line of an argon laser. Emission was filtered using a 540+/−30 nm bandpass filter. For evaluation of the effects of test compounds using the Ca^2+ flux assay, compounds to be tested were provided in assay ready plates. For nicotinic receptor ion channel expressing cells, the assay was initiated by the addition of 20 μl/well of Hanks buffer containing test compounds. For all assays, data were collected at 1 Hz for 10 seconds (baseline), at which time the compound containing stimulus buffers are added, and further measurements collected at 0.33 Hz for 3 min.
The statistical robustness of the nicotinic receptor Ca^2+ flux assays is determined from blanks and totals wells. The totals wells define maximal channel activation for each compound test plate (Maximum efficacious dose of acetylcholine), and the blanks wells which contain matched DMSO only, define zero channel activation. […]

Where [1] appears, read: FLIPR α7 (EC50, nM), HEK 293 cells, Ca2+ flux, agonist potency.
Setting [2] is: FLIPR α7 activity rating (EC50, nM), HEK 293 cells, Ca2+ flux, class rating of EC50.

Like-named read-outs stand apart in the source and are kept apart here.

T1 sequence (Q05941 23-502): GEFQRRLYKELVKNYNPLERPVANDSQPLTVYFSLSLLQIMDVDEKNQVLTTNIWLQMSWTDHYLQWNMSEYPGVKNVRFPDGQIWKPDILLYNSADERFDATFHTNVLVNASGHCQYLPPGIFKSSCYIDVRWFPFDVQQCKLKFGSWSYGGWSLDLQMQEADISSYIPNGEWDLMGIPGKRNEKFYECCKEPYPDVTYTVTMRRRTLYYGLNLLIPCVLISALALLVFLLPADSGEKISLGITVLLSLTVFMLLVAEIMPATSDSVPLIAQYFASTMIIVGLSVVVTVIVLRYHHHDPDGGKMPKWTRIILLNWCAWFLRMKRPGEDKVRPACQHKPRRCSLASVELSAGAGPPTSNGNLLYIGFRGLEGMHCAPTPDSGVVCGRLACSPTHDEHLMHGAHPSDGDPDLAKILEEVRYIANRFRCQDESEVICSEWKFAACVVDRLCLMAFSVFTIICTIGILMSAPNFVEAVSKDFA

In general, EC50 refers to the concentration giving half of the maximal effect. Read a high EC50 as a less potent agent. As to `Cc1nc2n(c1Br)CC1(CN3CCC1CC3)O2` (racemic) [Example 3a, 5-Bromo-6-methyl-3H-1′-azaspiro[imidazo[2,1-b]oxazole-2,3′-bicyclo[2.2.2]octane]], the concentration for a half-maximal effect (EC50) under setting [1] came to 36.1 nM and the EC50 under setting [2] is less than 100 nM.

Consider `Cc1c(Br)nc2n1CC1(CN3CCC1CC3)O2` (racemic) [Example 3b, 6-Bromo-5-methyl-3H-1′-azaspiro[imidazo[2,1-b]oxazole-2,3′-bicyclo[2.2.2]octane]], for which the EC50 reads like this: under setting [1], 71.4 nM; under setting [2], less than 100 nM.

`Brc1nc2n(n1)CC1(CN3CCC1CC3)O2` (racemic) [Example 15, 2-Bromo-6H-1′-azaspiro[oxazolo[3,2-b][1,2,4]triazole-5,3′-bicyclo[2.2.2]octane]]: the EC50 reads like this: under setting [1], 362 nM; under setting [2], 100 to 1000 nM.

Turning to `Clc1nc2n(n1)CC1(CN3CCC1CC3)O2` (racemic) [Example 16, 2-Chloro-6H-1′-azaspiro[oxazolo[3,2-b][1,2,4]triazole-5,3′-bicyclo[2.2.2]octane]], the EC50 is 174 nM under setting [1] and 100 to 1000 nM under setting [2].

Take `c1nc2n(n1)CC1(CN3CCC1CC3)O2` (racemic) [Example 17, 6H-1′-Azaspiro[oxazolo[3,2-b][1,2,4]triazole-5,3′-bicyclo[2.2.2]octane]]: the EC50 is, setting by setting: under setting [1], 321 nM; under setting [2], 100 to 1000 nM.

Turning to `Cc1nc2c(cc1Br)nc1n2CC2(CN3CCC2CC3)O1` (racemic) [Example 18, 7-Bromo-6-methyl-3H-1′-azaspiro[oxazolo[2′,3′:2,3]imidazo[4,5-b]pyridine-2,3′-bicyclo[2.2.2]octane]], the EC50 runs as follows: under setting [1], 967 nM; under setting [2], 100 to 1000 nM.

As to `Brc1cnc2c(c1)nc1n2CC2(CN3CCC2CC3)O1` (racemic) [Example 19, 7-Bromo-3H-1′-azaspiro[oxazolo[2′,3′:2,3]imidazo[4,5-b]pyridine-2,3′-bicyclo[2.2.2]octane]], it took 49 nM to reach a half-maximal effect under setting [1] (EC50) and the EC50 under setting [2] was less than 100 nM.

Regarding `Clc1cnc2c(c1)nc1n2CC2(CN3CCC2CC3)O1` (racemic) [Example 20, 7-Chloro-3H-1′-azaspiro[oxazolo[2′,3′:2,3]imidazo[4,5-b]pyridine-2,3′-bicyclo[2.2.2]octane]], the EC50 is, setting by setting: under setting [1], 66 nM; under setting [2], less than 100 nM.

On to `Brc1nc2n(c1Br)C[C@]1(CN3CCC1CC3)O2` (single isomer, unassigned) [Example 1a], for which the EC50 is 5690 nM under setting [1] and 1000 to 100000 nM under setting [2].

For `Brc1nc2n(c1Br)C[C@@]1(CN3CCC1CC3)O2` (single isomer, unassigned) [Example 1b], the EC50 under setting [1] turned out to be 19.6 nM and the half-maximal effective concentration (EC50) under setting [2] was less than 100 nM.

On to `c1ccc2c(c1)nc1n2C[C@@]2(CN3CCC2CC3)O1` (single isomer, unassigned) [Example 4a], for which the EC50 was 13.6 nM under setting [1] and less than 100 nM under setting [2].

`c1ccc2c(c1)nc1n2C[C@]2(CN3CCC2CC3)O1` (single isomer, unassigned) [Example 4b]: the concentration giving a half-maximal response (EC50) by setting is: under setting [1], 6660 nM; under setting [2], 1000 to 100000 nM.

In turn, `Cc1cc2nc3n(c2cc1C)C[C@@]1(CN2CCC1CC2)O3` (single isomer, unassigned) [Example 5a] had a concentration for a half-maximal effect (EC50) under setting [1] of 65.3 nM and a concentration for a half-maximal effect (EC50) under setting [2] of less than 100 nM.

`Cc1cc2nc3n(c2cc1C)C[C@]1(CN2CCC1CC2)O3` (single isomer, unassigned) [Example 5b]: the EC50 runs as follows: under setting [1], greater than 100000 nM; under setting [2], greater than 1e+06 nM.

As to `COc1ccc2c(c1)nc1n2C[C@]2(CN3CCC2CC3)O1` (single isomer, unassigned) [Example 6a], the EC50 by setting is: under setting [1], 1430 nM; under setting [2], 1000 to 100000 nM.

With `COc1ccc2c(c1)nc1n2C[C@@]2(CN3CCC2CC3)O1` (single isomer, unassigned) [Example 6b], the half-maximal effective concentration (EC50) is, setting by setting: under setting [1], 10.3 nM; under setting [2], less than 100 nM.

In turn, `Cc1ccc2nc3n(c2c1)C[C@@]1(CN2CCC1CC2)O3` (single isomer, unassigned) [Example 7a] yielded a concentration for a half-maximal effect (EC50) under setting [1] of 35 nM and an EC50 under setting [2] of less than 100 nM.

As to `Cc1ccc2c(c1)nc1n2C[C@@]2(CN3CCC2CC3)O1` (single isomer, unassigned) [Example 7b], the EC50 by setting is: under setting [1], 5.1 nM; under setting [2], less than 100 nM.

For the compound `FC(F)(F)c1ccc2c(c1)nc1n2C[C@@]2(CN3CCC2CC3)O1` (single isomer, unassigned) [Example 8a], the EC50 is, setting by setting: under setting [1], 4.7 nM; under setting [2], less than 100 nM.

On to `FC(F)(F)c1ccc2nc3n(c2c1)C[C@@]1(CN2CCC1CC2)O3` (single isomer, unassigned) [Example 8b], for which the half-maximal effective concentration (EC50) was 7190 nM. This compound also returned an EC50 under setting [2] of 1000 to 100000 nM.

`FC(F)(F)c1ccc2nc3n(c2c1)C[C@]1(CN2CCC1CC2)O3` (single isomer, unassigned) [Example 8c] registered a concentration for a half-maximal effect (EC50) greater than 100000 nM. Under setting [2], this compound registered an EC50 greater than 1e+06 nM.

In the case of `FC(F)(F)c1ccc2c(c1)nc1n2C[C@]2(CN3CCC2CC3)O1` (single isomer, unassigned) [Example 8d], the 50% effective concentration (EC50) reads like this: under setting [1], 1330 nM; under setting [2], 1000 to 100000 nM.

With `Clc1cccc2c1nc1n2C[C@]2(CN3CCC2CC3)O1` (single isomer, unassigned) [Example 9a], the EC50 is, setting by setting: under setting [1], 12100 nM; under setting [2], 1000 to 100000 nM.

As for `Clc1cccc2c1nc1n2C[C@@]2(CN3CCC2CC3)O1` (single isomer, unassigned) [Example 9b], the 50% effective concentration (EC50) was 24.6 nM under setting [1] and less than 100 nM under setting [2].

As for `Clc1cccc2nc3n(c12)C[C@@]1(CN2CCC1CC2)O3` (single isomer, unassigned) [Example 9c], the midpoint of the response under setting [1], the EC50, lay at 347 nM and the EC50 under setting [2] was in the range of 100 to 1000 nM.

As for `Clc1cccc2nc3n(c12)C[C@]1(CN2CCC1CC2)O3` (single isomer, unassigned) [Example 9d], the EC50 is, setting by setting: under setting [1], 3950 nM; under setting [2], 1000 to 100000 nM.

Turning to `Cc1cccc2c1nc1n2C[C@]2(CN3CCC2CC3)O1` (single isomer, unassigned) [Example 10a], the concentration for a half-maximal effect (EC50) runs as follows: under setting [1], 263 nM; under setting [2], 100 to 1000 nM.

On to `Cc1cccc2c1nc1n2C[C@@]2(CN3CCC2CC3)O1` (single isomer, unassigned) [Example 10b], for which the EC50 was 9.1 nM under setting [1] and less than 100 nM under setting [2].

In turn, `FC(F)(F)c1cccc2c1nc1n2C[C@]2(CN3CCC2CC3)O1` (single isomer, unassigned) [Example 11a] gave an EC50 under setting [1] of 32500 nM and an EC50 under setting [2] of 1000 to 100000 nM.

As to `FC(F)(F)c1cccc2c1nc1n2C[C@@]2(CN3CCC2CC3)O1` (single isomer, unassigned) [Example 11b], the EC50 was 22 nM under setting [1] and less than 100 nM under setting [2].

As to `COc1ccc(-c2cccc3c2nc2n3C[C@]3(CN4CCC3CC4)O2)cc1` (single isomer, unassigned) [Example 12a], the EC50 reads like this: under setting [1], greater than 100000 nM; under setting [2], greater than 1e+06 nM.

Turning to `COc1ccc(-c2cccc3c2nc2n3C[C@@]3(CN4CCC3CC4)O2)cc1` (single isomer, unassigned) [Example 12b], the EC50 was 28 nM under setting [1] and less than 100 nM under setting [2].

On to `c1cncc(-c2ccc3c(c2)nc2n3C[C@]3(CN4CCC3CC4)O2)c1` (single isomer, unassigned) [Example 13a], for which the midpoint of the response under setting [1], the EC50, lay at 2990 nM and the EC50 under setting [2] is 1000 to 100000 nM.

`c1cncc(-c2ccc3c(c2)nc2n3C[C@@]3(CN4CCC3CC4)O2)c1` (single isomer, unassigned) [Example 13b]: the EC50 is 634 nM under setting [1] and 100 to 1000 nM under setting [2].
